# According to patent publication US8921267B2, “Safening 6-(trisubstituted phenyl)-4-amino-2-pyridinecarboxylate herbicide injury on cereal crops” (Dow AgroSciences LLC, priority 2008, dated 2014):
# Assays:
# Assay type in all cases: in vivo
# [1] = test system: wheat (Triticum aestivum L; TRZAS); assay: Postemergence herbicidal safening, greenhouse, visual injury: wheat; settings: for TRZAS Ob: applied alone
# Protocol: (§1) Evaluation of Postemergence Herbicidal Safening in Cereal Crops
# (§2) Seeds of the desired test plant species were planted in Sun Gro MetroMix® 306 planting mixture, which typically has a pH of 6.0 to 6.8 and an organic matter content of about 30 percent, in plastic pots with a surface area of 103.2 square centimeters (cm^2). When required to ensure good germination and healthy plants, a fungicide treatment and/or other chemical or physical treatment was applied. The plants were grown for 7-36 days (d) in a greenhouse with an approximate 14-hour (h) photoperiod which was maintained at about 18° C. during the day and 17° C. during the night. Nutrients and water were added on a regular basis and supplemental lighting was provided with overhead metal halide 1000-Watt lamps as necessary. The plants were employed for testing when they reached the second or third true leaf stage.
# (§3) Weighed amounts of esters (methyl) or salts (TEA [triethylammonium], K [potassium]) of 4-amino-3-chloro-6-(4-chloro-2-fluoro-3-methoxyphenyl)pyridine-2-carboxylic acid (Compound 1) were dissolved in a volume of 97:3 volume/volume (v/v) acetone/dimethylsulfoxide (DMSO) to obtain stock solutions. […] The concentrated stock solutions were diluted with an aqueous mixture of 1.5% v/v of Agri-dex crop oil concentrate to provide the appropriate application rates. Compound requirements are based upon a 12 mL application volume at a rate of 187 liters per hectare (L/ha). Stocks solutions of the safeners were prepared following the same procedure. Spray solutions of the safeners and experimental compound mixtures were prepared by adding the stock solutions to the appropriate amount of dilution solution to form a 12 mL spray solution with active ingredients in two-way combinations. Formulated compounds were applied to the plant material with an overhead Mandel track sprayer equipped with 8002E nozzles calibrated to deliver 187 L/ha over an application area of 0.503 square meters (m^2) at a spray height of 18 inches (43 centimeters (cm)) above average plant canopy. Control plants were sprayed in the same manner with the solvent blank.
# (§4) The treated plants and control plants were placed in a greenhouse as described above and watered by sub-irrigation to prevent wash-off of the test compounds. After 20-22 d, the condition of the test plants as compared with that of the control plants was determined visually and scored on a scale of 0 to 100 percent where 0 corresponds to no injury and 100 corresponds to complete kill.
# (§5) Colby's equation was used to determine the herbicidal effects expected from the mixtures (Colby, S. R. Calculation of the synergistic and antagonistic response of herbicide combinations. Weeds 1967, 15, 20-22.).
# (§6) The following equation was used to calculate the expected activity of mixtures containing two active ingredients, A and B: Expected=A+B−(A×B/100)
# (§7) A=observed efficacy of active ingredient A at the same concentration as used in the mixture.
# (§8) B=observed efficacy of active ingredient B at the same concentration as used in the mixture.
# [2] = test system: barley (Hordeum vulgare L; HORVS); assay: Postemergence herbicidal safening, greenhouse, visual injury: barley; settings: for HORVS Ob: applied alone
# Protocol: as §1, §2, §3, §4, §5, §6, §7, §8
# [3] = test system: cleavers (Galium aparine L; GALAP); assay: Postemergence herbicidal activity, greenhouse, visual injury: cleavers; set-up: key: visual injury, 0–100%: 0 = no injury, 100 = complete kill; settings: applied alone
# Protocol: as §1, §2, §3, §4, §5, §6, §7, §8
# [4] = test system: kochia (Kochia scoparia L; KCHSC); assay: Postemergence herbicidal activity, greenhouse, visual injury: kochia; set-up: key: % visual injury: 0 = no injury, 100 = complete kill; settings: applied alone
# Protocol: as §1, §2, §3, §4, §5, §6, §7, §8
# [5] = test system: purple deadnettle (Lamium purpureum L; LAMPU); assay: Postemergence herbicidal activity, greenhouse, visual injury: purple deadnettle; set-up: key: visual injury, 0–100%: 0 = no injury, 100 = complete kill; settings: applied alone
# Protocol: as §1, §2, §3, §4, §5, §6, §7, §8
# [6] = test system: scented mayweed (Matricaria chamomila L; MATCH); assay: Postemergence herbicidal activity, greenhouse, visual injury: scented mayweed; set-up: key: % visual injury: 0 = no injury, 100 = complete kill; settings: for MATCH Ob: applied alone
# Protocol: as §1, §2, §3, §4, §5, §6, §7, §8
# [7] = test system: corn poppy (Papaver rhoeas L; PAPRH); assay: Postemergence herbicidal activity, greenhouse, visual injury: corn poppy; settings: applied alone
# Protocol: as §1, §2, §3, §4, §5, §6, §7, §8
# [8] = test system: wild buckwheat (Polygonum convolvulus L; POLCO); assay: Postemergence herbicidal activity, greenhouse, visual injury: wild buckwheat; settings: applied alone
# Protocol: as §1, §2, §3, §4, §5, §6, §7, §8
# [9] = test system: Russian thistle (Salsola iberica L; SASKR); assay: Postemergence herbicidal activity, greenhouse, visual injury: Russian thistle; set-up: key: visual injury, 0–100%: 0 = no injury, 100 = complete kill; settings: applied alone
# Protocol: as §1, §2, §3, §4, §5, §6, §7, §8
# [10] = test system: chickweed (Stellaria media L; STEME); assay: Postemergence herbicidal activity, greenhouse, visual injury: chickweed; set-up: key: visual injury, 0–100%: 0 = no injury, 100 = complete kill; settings: applied alone
# Protocol: as §1, §2, §3, §4, §5, §6, §7, §8
# [11] = test system: bird's-eye speedwell (Veronica persica L; VERPE); assay: Postemergence herbicidal activity, greenhouse, visual injury: bird's-eye speedwell; set-up: key: visual injury, 0–100%: 0 = no injury, 100 = complete kill; settings: applied alone
# Protocol: as §1, §2, §3, §4, §5, §6, §7, §8
# [12] = test system: wild pansy (Viola tricolor L; VIOTR); assay: Postemergence herbicidal activity, greenhouse, visual injury: wild pansy; set-up: key: visual injury, 0–100%: 0 = no injury, 100 = complete kill; settings: for VIOTR Ob: applied alone
# Protocol: as §1, §2, §3, §4, §5, §6, §7, §8
compound,measurement,setting,value
CC1(C)OC(c2ccco2)CN1C(=O)C(Cl)Cl (stereo not shown) [Furilazole (MON 13900)],TRZAS Ob,[1]; 17.5 g/ha,0%
same,TRZAS Ob,[1]; 35 g/ha,0%
same,TRZAS Ob,[1]; 70 g/ha,0%
same,TRZAS Ob,[1]; 140 g/ha,0%
same,HORVS Ob,[2]; 17.5 g/ha,0%
same,HORVS Ob,[2]; 35 g/ha,0%
same,HORVS Ob,[2]; 70 g/ha,0%
same,HORVS Ob,[2]; 140 g/ha,0%
same,GALAP Ob,[3]; 17.5 g/ha,0
same,GALAP Ob,[3]; 35 g/ha,0
same,GALAP Ob,[3]; 70 g/ha,0
same,GALAP Ob,[3]; 140 g/ha,0
same,KCHSC Ob,[4]; 17.5 g/ha,0
same,KCHSC Ob,[4]; 35 g/ha,0
same,KCHSC Ob,[4]; 70 g/ha,0
same,KCHSC Ob,[4]; 140 g/ha,0
same,LAMPU Ob,[5]; 17.5 g/ha,0
same,LAMPU Ob,[5]; 35 g/ha,0
same,LAMPU Ob,[5]; 70 g/ha,0
same,LAMPU Ob,[5]; 140 g/ha,0
same,MATCH Ob,[6]; 17.5 g/ha,0
same,MATCH Ob,[6]; 35 g/ha,0
same,MATCH Ob,[6]; 70 g/ha,0
same,MATCH Ob,[6]; 140 g/ha,0
same,PAPRH Ob,[7]; 17.5 g/ha,0
same,PAPRH Ob,[7]; 35 g/ha,0
same,PAPRH Ob,[7]; 70 g/ha,0
same,PAPRH Ob,[7]; 140 g/ha,0
same,POLCO Ob,[8]; 17.5 g/ha,0
same,POLCO Ob,[8]; 35 g/ha,0
same,POLCO Ob,[8]; 70 g/ha,0
same,POLCO Ob,[8]; 140 g/ha,0
same,SASKR Ob,[9]; 17.5 g/ha,0
same,SASKR Ob,[9]; 35 g/ha,0
same,SASKR Ob,[9]; 70 g/ha,0
same,SASKR Ob,[9]; 140 g/ha,0
same,STEME Ob,[10]; 17.5 g/ha,0
same,STEME Ob,[10]; 35 g/ha,0
same,STEME Ob,[10]; 70 g/ha,0
same,STEME Ob,[10]; 140 g/ha,0
same,VERPE Ob,[11]; 17.5 g/ha,0
same,VERPE Ob,[11]; 35 g/ha,0
same,VERPE Ob,[11]; 70 g/ha,0
same,VERPE Ob,[11]; 140 g/ha,0
same,VIOTR Ob,[12]; 17.5 g/ha,0
same,VIOTR Ob,[12]; 35 g/ha,0
same,VIOTR Ob,[12]; 70 g/ha,0
same,VIOTR Ob,[12]; 140 g/ha,0
O=C(O)CNCP(=O)(O)O [Glyphosate],TRZAS Ob (Observed values),[1]; Glyphosate 52.5 g/ha alone,48
same,HORVS Ob (Observed values),[2]; Glyphosate 52.5 g/ha alone,13
same,MATCH Ob (Observed values),[6]; Glyphosate 52.5 g/ha alone,28
same,VIOTR Ob (Observed values),[12]; Glyphosate 52.5 g/ha alone,52
N#C/C(=N\OCC1OCCO1)c1ccccc1 [Oxabetrinil],TRZAS Ob,[1]; 17.5 g/ha,0%
same,TRZAS Ob,[1]; 35 g/ha,0%
same,TRZAS Ob,[1]; 70 g/ha,0%
same,TRZAS Ob,[1]; 140 g/ha,0%
same,HORVS Ob,[2]; 17.5 g/ha,0%
same,HORVS Ob,[2]; 35 g/ha,0%
same,HORVS Ob,[2]; 70 g/ha,0%
same,HORVS Ob,[2]; 140 g/ha,0%
same,GALAP Ob,[3]; 17.5 g/ha,0
same,GALAP Ob,[3]; 35 g/ha,0
same,GALAP Ob,[3]; 70 g/ha,0
same,GALAP Ob,[3]; 140 g/ha,0
same,KCHSC Ob,[4]; 17.5 g/ha,0
same,KCHSC Ob,[4]; 35 g/ha,0
same,KCHSC Ob,[4]; 70 g/ha,0
same,KCHSC Ob,[4]; 140 g/ha,0
same,LAMPU Ob,[5]; 17.5 g/ha,0
same,LAMPU Ob,[5]; 35 g/ha,0
same,LAMPU Ob,[5]; 70 g/ha,0
same,LAMPU Ob,[5]; 140 g/ha,0
same,MATCH Ob,[6]; 17.5 g/ha,0
same,MATCH Ob,[6]; 35 g/ha,0
same,MATCH Ob,[6]; 70 g/ha,0
same,MATCH Ob,[6]; 140 g/ha,0
same,PAPRH Ob,[7]; 17.5 g/ha,0
same,PAPRH Ob,[7]; 35 g/ha,0
same,PAPRH Ob,[7]; 70 g/ha,0
same,PAPRH Ob,[7]; 140 g/ha,0
same,POLCO Ob,[8]; 17.5 g/ha,0
same,POLCO Ob,[8]; 35 g/ha,0
same,POLCO Ob,[8]; 70 g/ha,0
same,POLCO Ob,[8]; 140 g/ha,0
same,SASKR Ob,[9]; 17.5 g/ha,0
same,SASKR Ob,[9]; 35 g/ha,0
same,SASKR Ob,[9]; 70 g/ha,0
same,SASKR Ob,[9]; 140 g/ha,0
same,STEME Ob,[10]; 17.5 g/ha,0
same,STEME Ob,[10]; 35 g/ha,0
same,STEME Ob,[10]; 70 g/ha,0
same,STEME Ob,[10]; 140 g/ha,0
same,VERPE Ob,[11]; 17.5 g/ha,0
same,VERPE Ob,[11]; 35 g/ha,0
same,VERPE Ob,[11]; 70 g/ha,0
same,VERPE Ob,[11]; 140 g/ha,0
same,VIOTR Ob,[12]; 17.5 g/ha,0
same,VIOTR Ob,[12]; 35 g/ha,0
same,VIOTR Ob,[12]; 70 g/ha,0
same,VIOTR Ob,[12]; 140 g/ha,0
